Experimental data as given in ChEMBL document CHEMBL2396520, “The development of CNS-active LRRK2 inhibitors using property-directed optimisation” (Bioorg Med Chem Lett, 2013).

Columns and labels:
Brain = experiment: Drug uptake in mouse brain at 1 mg/kg, iv; type: ADME, organism-based; design: dose 1 mg/kg, route intravenous; details: in vivo
[1] = biological target: T1, Leucine-rich repeat serine/threonine-protein kinase 2 (Homo sapiens, UniProt Q5S007, G2019S); experiment: Inhibition of human recombinant LRRK2 G2019S mutant using biotin-LRRKtide as substrate preincubated for 15 mins prior to substrate addition measured after 60 mins by TR-FRET assay
T1 sequence (Q5S007 whole entry G2019S): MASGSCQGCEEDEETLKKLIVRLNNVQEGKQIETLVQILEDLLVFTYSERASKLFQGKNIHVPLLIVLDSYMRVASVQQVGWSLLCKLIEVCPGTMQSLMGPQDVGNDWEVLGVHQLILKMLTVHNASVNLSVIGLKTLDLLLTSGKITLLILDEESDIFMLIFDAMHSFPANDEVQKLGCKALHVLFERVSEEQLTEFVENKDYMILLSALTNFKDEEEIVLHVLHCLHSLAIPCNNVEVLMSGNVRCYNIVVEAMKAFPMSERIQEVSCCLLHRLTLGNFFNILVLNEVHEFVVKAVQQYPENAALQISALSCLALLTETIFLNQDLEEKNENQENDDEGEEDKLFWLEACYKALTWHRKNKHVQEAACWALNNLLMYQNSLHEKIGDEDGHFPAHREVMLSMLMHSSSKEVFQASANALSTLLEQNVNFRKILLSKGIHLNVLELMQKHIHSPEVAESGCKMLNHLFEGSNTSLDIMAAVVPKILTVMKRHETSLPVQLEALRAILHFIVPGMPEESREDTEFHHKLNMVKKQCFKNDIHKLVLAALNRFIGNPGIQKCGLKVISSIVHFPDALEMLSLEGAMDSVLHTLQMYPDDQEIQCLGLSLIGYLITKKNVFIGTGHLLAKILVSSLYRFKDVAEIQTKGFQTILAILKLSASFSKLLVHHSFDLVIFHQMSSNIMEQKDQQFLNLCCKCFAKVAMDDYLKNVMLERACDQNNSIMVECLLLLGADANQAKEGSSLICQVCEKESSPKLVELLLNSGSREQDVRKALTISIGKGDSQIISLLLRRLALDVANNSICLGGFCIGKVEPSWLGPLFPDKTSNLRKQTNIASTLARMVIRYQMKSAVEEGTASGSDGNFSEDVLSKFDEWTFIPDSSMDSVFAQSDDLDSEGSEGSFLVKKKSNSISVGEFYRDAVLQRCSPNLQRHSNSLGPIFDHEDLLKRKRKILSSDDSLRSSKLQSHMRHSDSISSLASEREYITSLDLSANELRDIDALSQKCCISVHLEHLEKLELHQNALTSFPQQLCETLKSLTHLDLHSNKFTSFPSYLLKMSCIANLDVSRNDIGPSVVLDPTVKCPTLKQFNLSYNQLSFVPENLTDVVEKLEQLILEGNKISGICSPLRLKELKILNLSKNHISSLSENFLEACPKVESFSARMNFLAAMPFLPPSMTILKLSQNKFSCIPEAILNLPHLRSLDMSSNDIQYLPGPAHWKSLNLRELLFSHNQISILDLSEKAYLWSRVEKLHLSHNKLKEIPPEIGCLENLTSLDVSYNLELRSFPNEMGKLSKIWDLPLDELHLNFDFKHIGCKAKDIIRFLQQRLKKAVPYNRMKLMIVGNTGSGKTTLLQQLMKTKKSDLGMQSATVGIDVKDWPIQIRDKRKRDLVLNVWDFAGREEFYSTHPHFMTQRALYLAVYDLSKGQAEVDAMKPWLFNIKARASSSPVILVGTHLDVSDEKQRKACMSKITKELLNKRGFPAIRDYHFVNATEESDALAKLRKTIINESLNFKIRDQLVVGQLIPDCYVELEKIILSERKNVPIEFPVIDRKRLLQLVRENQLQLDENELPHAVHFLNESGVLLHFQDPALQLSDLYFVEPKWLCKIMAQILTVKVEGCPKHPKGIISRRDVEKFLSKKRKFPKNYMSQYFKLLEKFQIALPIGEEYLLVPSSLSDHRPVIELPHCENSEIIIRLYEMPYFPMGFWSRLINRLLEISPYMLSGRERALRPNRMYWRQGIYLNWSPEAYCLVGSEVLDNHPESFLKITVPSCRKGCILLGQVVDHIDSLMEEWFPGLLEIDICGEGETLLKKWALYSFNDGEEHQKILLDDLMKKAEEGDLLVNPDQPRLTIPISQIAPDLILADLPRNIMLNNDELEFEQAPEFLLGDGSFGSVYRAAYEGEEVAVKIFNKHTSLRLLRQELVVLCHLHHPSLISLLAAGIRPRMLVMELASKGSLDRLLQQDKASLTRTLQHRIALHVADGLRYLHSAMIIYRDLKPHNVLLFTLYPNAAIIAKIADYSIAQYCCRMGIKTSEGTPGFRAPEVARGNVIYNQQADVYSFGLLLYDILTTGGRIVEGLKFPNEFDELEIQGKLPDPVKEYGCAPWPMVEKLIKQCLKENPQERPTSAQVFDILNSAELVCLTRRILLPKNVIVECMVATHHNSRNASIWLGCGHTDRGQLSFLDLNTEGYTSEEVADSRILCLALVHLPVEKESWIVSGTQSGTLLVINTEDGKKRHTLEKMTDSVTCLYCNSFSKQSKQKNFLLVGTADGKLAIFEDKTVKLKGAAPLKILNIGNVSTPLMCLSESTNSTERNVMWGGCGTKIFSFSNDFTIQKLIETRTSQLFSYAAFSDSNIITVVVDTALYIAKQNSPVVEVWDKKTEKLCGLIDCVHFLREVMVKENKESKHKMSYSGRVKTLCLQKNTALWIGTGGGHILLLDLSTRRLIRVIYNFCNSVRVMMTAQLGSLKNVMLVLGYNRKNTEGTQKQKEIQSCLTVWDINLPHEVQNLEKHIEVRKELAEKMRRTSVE

[2] = biological target: Leucine-rich repeat serine/threonine-protein kinase 2 (Homo sapiens, UniProt Q5S007); experiment: Inhibition of human recombinant wild type LRRK2 using biotin-LRRKtide as substrate preincubated for 15 mins prior to substrate addition measured after 60 mins by TR-FRET assay
Leucine-rich repeat serine/threonine-protein kinase 2 (Homo sapiens, UniProt Q5S007), sequence (Q5S007 whole entry, the tested form may be a part): as the sequence (Q5S007 whole entry G2019S) above, with S2019G counted along it

[3] = biological target: T1, Leucine-rich repeat serine/threonine-protein kinase 2; experiment: Inhibition of GST-tagged LRRK2 (1326 to 2527 amino acids) G2019S mutant (unknown origin)

| SMILES | Drug uptake (Brain) [%] | IC50 [1] [nM] | Ki [1] [nM] | IC50 [2] [nM] | Ki [3] [nM] |
| --- | --- | --- | --- | --- | --- |
| COc1cc(N2CCOCC2)ccc1Nc1ncc(F)c(Nc2ccccc2NS(C)(=O)=O)n1 | 4 | 7 | 7 | 4 |  |
| COc1cc(C(=O)N2CCC(N3CCN(C)CC3)CC2)ccc1Nc1ncc2c(n1)N(C)c1ccccc1C(=O)N2C |  |  |  |  | 6 |
